Patent US20090057619A1, “Compositions and Visual Perception Changing Methods” (priority 2007, published 2009)

Experiments:
[1] = cited from earlier work; for reported pKa: @ 25° C.
[2] = Ratio of absorbances Abs1:Abs2 as a function of product dilution, pH kept at 9.0; type: physicochemical; details: pH 9.0; for Abs1:Abs2: no detergent
Method: Example of color change—pH is kept constant upon dilution—As shown in Tables 1 and 2 below, bromothymol blue (BTB) is assessed in representative nil-dye versions of representative hand dishwashing products: a) Dawn® Bleach Alternative, b) Dreft®, and c) nil-dye Fairy® Liquid. In a typical procedure, BTB is directly added to the hand dishwashing detergent (60 ppm BTB) and the visible spectrum monitored (λ=400-700 nm) as a function of product dilution with deionized water. After each dilution, the detergent solution is adjusted to pH 9.0 with 0.1% NaOH and the ratio of absorbances at λmax=615-635 nm (Abs1) and λmax=395-435 nm (Abs2) measured. For comparison, a 60 ppm aqueous solution of BTB is prepared and sequentially diluted with deionized water, the pH again adjusted to 9.0 after each dilution (Table 2).
For the dishwashing detergents containing BTB, the ratio Abs1:Abs2 increases upon dilution, the most significant increase occurring at product concentrations ≦2.5%. […] Absorption measurements for Tables 1 and 2 are made on an HP UV/Visibile 8453 Spectrophotometer (Hewlett-Packard).

[3] = pKa of BTB estimated by spectrophotometric titration in water and in model dishwashing detergent; type: physicochemical
Text: Example of color change—pKa measurements—As outlined in the methods described by Brode (Journal of the American Chemical Society, Vol. 46, pp 581-596, 1924) and Puschett et al (Talanta, Vol. 38, Issue #3, pp 335-338, 1991), the pKa of bromothymol blue (BTB) is estimated in water and a model dishwashing detergent containing approximately 30% surfactant (combination of alkylethoxysulfonate and amine oxide). In the absence of detergent, stock solutions of BTB (6-20 ppm) are first adjusted to a pH of 11-12 and titrated with 1% HCl down to a pH of 4.0. After each pH adjustment the absorbance peak at 617 nm (Abs1) is measured and pKa estimated from the abscissa of the point of inflection. In similar fashion, BTB is added at a 60 ppm level to the dishwashing detergent, diluted 10-100 fold with deionized water and titrated with 1% HCl.

Cc1cc(C2(c3cc(C)c(O)c(Br)c3)OS(=O)(=O)c3ccccc32)cc(Br)c1O [bromocresol purple]
reported pKa [1]: 6.3

Cc1c(C2(c3cc(C(C)C)c(O)c(Br)c3C)OS(=O)(=O)c3ccccc32)cc(C(C)C)c(O)c1Br [BTB, bromothymol blue]
Abs1:Abs2 ([2]; BTB in water 0.3 ppm (product conc. 0.5 %)): 5.00
Abs1:Abs2 ([2]; BTB in water 0.6 ppm (product conc. 1 %)): 4.68
Abs1:Abs2 ([2]; BTB in water 1.2 ppm (product conc. 2 %)): 4.14
Abs1:Abs2 ([2]; BTB in water 2.4 ppm (product conc. 4 %)): 4.59
Abs1:Abs2 ([2]; BTB in water 3.0 ppm (product conc. 5 %)): 4.37
Abs1:Abs2 ([2]; BTB in water 3.6 ppm (product conc. 6 %)): 4.52
Abs1:Abs2 ([2]; BTB in water 4.8 ppm (product conc. 8 %)): 4.35
Abs1:Abs2 ([2]; BTB in water 6.0 ppm (product conc. 10 %)): 4.47
Abs1:Abs2 ([2]; BTB in water 7.2 ppm (product conc. 12 %)): 4.31
Abs1:Abs2 ([2]; BTB in water 9.6 ppm (product conc. 16 %)): 4.29
Abs1:Abs2 ([2]; BTB in water 10.8 ppm (product conc. 18 %)): 4.23
Abs1:Abs2 ([2]; BTB in water 12.0 ppm (product conc. 20 %)): 4.16
change in the ratio Abs1:Abs2 upon dilution ([2]; dilution with deionized water): no significant change
pKa ([3]; model dishwashing detergent diluted with deionized water, detergent conc 1 %, model dishwashing detergent (approx. 30% surfactant)): 8.2
pKa ([3]; model dishwashing detergent diluted with deionized water, detergent conc 5 %, model dishwashing detergent (approx. 30% surfactant)): 9
pKa ([3]; model dishwashing detergent diluted with deionized water, detergent conc 10 %, model dishwashing detergent (approx. 30% surfactant)): 9.4
pKa ([3]; water without detergent, detergent conc 0 % (water, absence of detergent)): 7.3
reported pKa [1]: 7.1
pKa, literature value [1]: 7.1

O=S1(=O)OC(c2cc(Br)c(O)c(Br)c2)(c2cc(Br)c(O)c(Br)c2)c2ccccc21 [bromophenol blue]
reported pKa [1]: 4.0

Cc1cc(C2(c3cc(C)c(O)c(Br)c3C)OS(=O)(=O)c3ccccc32)c(C)c(Br)c1O [bromoxylenol blue]
reported pKa [1]: 7.0

Cc1c(C2(c3cc(Br)c(O)c(Br)c3C)OS(=O)(=O)c3ccccc32)cc(Br)c(O)c1Br [bromocresol green]
reported pKa [1]: 4.7
